Patent publication US4994473A, “Pyridyl containing insecticides” (ICI Americas Inc., priority 1988, dated 1991)

What follows are compounds tested on Trichoplusia ni (assay: Cabbage looper larvae leaf-dip test). Conditions: second instar larvae, percent of test compound in solution, 3-5 days.
Assay type: in vivo, Cabbage Looper Trichoplusia ni (Hubner)
Description: (§1) The compounds in Table I above were tested for insecticidal activity using the following testing procedures. LC50 values, based on the results of these tests and calculated according to dosage-mortality curves, are expressed in Table II.
Cabbage Looper Trichoplusia ni (Hubner)
The test compound was diluted in a 50--50 acetone-water solution Cotyledons of hyzini squash (Calabacita abobrinha), approximately 1×1.5 inches, were immersed in the test solutions for 2-3 seconds and placed on a wire screen to dry. The dried leaves were p1aced in petri dishes containing a moistened piece of filter paper and infested with 5 secondinstar cabbage looper larvae. The dishes were placed in a high humidity chamber. Mortality of the larvae was recorded 3-5 days later. Test concentrations ranged from 0.1% downward. The LC-50 value is expressed below in Table II under the heading "CL" in terms of percent of the test compound in solution.

Row | Structure (SMILES) | LC50 CL
1 | C=C(C)C(=Nc1ccc(Cl)nc1)OCc1cccc(Oc2ccccc2)c1 [Compound 47] | < 0.1%
2 | CC(C)C(=Nc1ccc(OCC(F)(F)F)nc1)OCc1ccc(F)c(Oc2ccccc2)c1 [Compound 42] | 0.000075%
3 | CC(C)C(=Nc1ccc(OCC(F)(F)F)nc1)OCc1ccc(F)c(Oc2ccc(Cl)cc2)c1 [Compound 44] | 0.00017%
4 | CC(C)C(=Nc1ccc(Cl)nc1)OCc1cccc(Oc2ccc(Cl)cc2)c1 [Compound 30] | 0.0007%
5 | CC(C)C(=Nc1c(F)c(F)nc(F)c1F)OCc1cccc(Oc2ccccc2)c1 [Compound 6] | 0.004%
6 | CC(C)C(=Nc1ccc(OCC(F)(F)F)nc1)OCc1cccc(Oc2ccc(Cl)cc2)n1 [Compound 46] | 0.00027%
7 | CC(C)C(=Nc1ccc(OCC(F)(F)F)nc1)OCc1cccc(Oc2ccc(Cl)cc2)c1 [Compound 39] | > 0.1%
8 | CC(C)(Cl)C(=Nc1nnc(C(F)(F)F)s1)OCc1cccc(Oc2ccccc2)c1 [Compound 9] | 0.035%
9 | CC(C)C(=Nc1cncc(C(F)(F)F)c1)OCc1cccc(Oc2ccccc2)c1 [Compound 33] | 0.0035%
10 | CC(C)C(=Nc1ccc(C(F)(F)F)cn1)OCc1cccc(Oc2ccccc2)c1 [Compound 4] | 0.008%

What follows are compounds tested on Tetranychus urticae (assay: Two-spotted mite acaricidal test on pinto bean plants). Conditions: adults, percent concentration in solution, 5-7 days.
Assay type: in vivo, two-spotted mite Tetranychus urticae (Koch)
Source text: Acaricidal Evaluation Test
The two-spotted mite (2SM) [Tetranychus urticae (Koch)]was employed in tests for miticides. The test procedure was as follows:
Pinto bean plants (Phaseolus sp.) approximately 10 cm tall, were transplanted into sandy loam soil in small cups and thoroughly infested with two-spotted mites of mixed ages and sexes. Twenty-four hours later the infested plants were inverted and dipped for 2-3 seconds in 50--50 acetone-water solutions of the test compound. Treated plants were held in the greenhouse, and 5-7 days later mortality was determined for both adult mites and the nymphs hatching from eggs which were on the plants at the time of treatment. Test concentrations ranged from 0.05% downward. The LC-50 value is expressed below in Table II under the headings "2SM-A" (i.e., adults) and "2SM-E" (i.e. eggs) in terms of percent concentration of the test compound in the solution.

Row | Structure (SMILES) | LC50 2-SM A
11 | C=C(C)C(=Nc1ccc(Cl)nc1)OCc1cccc(Oc2ccccc2)c1 [Compound 47] | > 0.05%
12 | CC(C)C(=Nc1ccc(OCC(F)(F)F)nc1)OCc1ccc(F)c(Oc2ccccc2)c1 [Compound 42] | 0.006%
13 | CC(C)C(=Nc1ccc(OCC(F)(F)F)nc1)OCc1ccc(F)c(Oc2ccc(Cl)cc2)c1 [Compound 44] | 0.001%
14 | CC(C)C(=Nc1ccc(Cl)nc1)OCc1cccc(Oc2ccc(Cl)cc2)c1 [Compound 30] | > 0.05%
15 | CC(C)C(=Nc1c(F)c(F)nc(F)c1F)OCc1cccc(Oc2ccccc2)c1 [Compound 6] | > 0.05%
16 | CC(C)C(=Nc1ccc(OCC(F)(F)F)nc1)OCc1cccc(Oc2ccc(Cl)cc2)n1 [Compound 46] | 0.006%
17 | CC(C)C(=Nc1ccc(OCC(F)(F)F)nc1)OCc1cccc(Oc2ccc(Cl)cc2)c1 [Compound 39] | 0.006%
18 | CC(C)(Cl)C(=Nc1nnc(C(F)(F)F)s1)OCc1cccc(Oc2ccccc2)c1 [Compound 9] | > 0.05%
19 | CC(C)C(=Nc1cncc(C(F)(F)F)c1)OCc1cccc(Oc2ccccc2)c1 [Compound 33] | > 0.05%
20 | CC(C)C(=Nc1ccc(C(F)(F)F)cn1)OCc1cccc(Oc2ccccc2)c1 [Compound 4] | > 0.05%

Same assay, conditions: eggs, percent concentration in solution, 5-7 days

Row | Structure (SMILES) | LC50 2-SM E
21 | C=C(C)C(=Nc1ccc(Cl)nc1)OCc1cccc(Oc2ccccc2)c1 [Compound 47] | > 0.05%
22 | CC(C)C(=Nc1ccc(OCC(F)(F)F)nc1)OCc1ccc(F)c(Oc2ccccc2)c1 [Compound 42] | 0.006%
23 | CC(C)C(=Nc1ccc(OCC(F)(F)F)nc1)OCc1ccc(F)c(Oc2ccc(Cl)cc2)c1 [Compound 44] | 0.001%
24 | CC(C)C(=Nc1ccc(Cl)nc1)OCc1cccc(Oc2ccc(Cl)cc2)c1 [Compound 30] | > 0.05%
25 | CC(C)C(=Nc1c(F)c(F)nc(F)c1F)OCc1cccc(Oc2ccccc2)c1 [Compound 6] | > 0.05%
26 | CC(C)C(=Nc1ccc(OCC(F)(F)F)nc1)OCc1cccc(Oc2ccc(Cl)cc2)n1 [Compound 46] | 0.006%
27 | CC(C)C(=Nc1ccc(OCC(F)(F)F)nc1)OCc1cccc(Oc2ccc(Cl)cc2)c1 [Compound 39] | 0.006%
28 | CC(C)(Cl)C(=Nc1nnc(C(F)(F)F)s1)OCc1cccc(Oc2ccccc2)c1 [Compound 9] | > 0.05%
29 | CC(C)C(=Nc1cncc(C(F)(F)F)c1)OCc1cccc(Oc2ccccc2)c1 [Compound 33] | > 0.05%
30 | CC(C)C(=Nc1ccc(C(F)(F)F)cn1)OCc1cccc(Oc2ccccc2)c1 [Compound 4] | > 0.05%

Each compound was assayed on Heliothis virescens (assay: Tobacco budworm egg dip test). Conditions: 2-day old eggs (TBW-E), percent of test compound in solution.
Assay type: in vivo, Tobacco Budworm Heliothis virescens (Fabricius)
Description: as §1
Tobacco Budworm Heliothis virescens (Fabricius)
Eggs: Paper towel patches of 2-day old eggs of the tobacco budworm were dipped in acetone solutions of the test compound and placed in petri dishes containing a portion of larval rearing medium. Treated eggs were maintained at 78° F. and mortality was recorded after all control eggs had hatched and the young larvae were feeding on the media. Test concentrations ranged from 0.1% downward. The LC-50 value is expressed below in Table II under the heading "TBW-E" in terms of percent of the test compound in the solution.

Row | Structure (SMILES) | LC50 TBW
31 | C=C(C)C(=Nc1ccc(Cl)nc1)OCc1cccc(Oc2ccccc2)c1 [Compound 47] | < 0.1%
32 | CC(C)C(=Nc1ccc(OCC(F)(F)F)nc1)OCc1ccc(F)c(Oc2ccccc2)c1 [Compound 42] | 0.017%
33 | CC(C)C(=Nc1ccc(OCC(F)(F)F)nc1)OCc1ccc(F)c(Oc2ccc(Cl)cc2)c1 [Compound 44] | 0.01%
34 | CC(C)C(=Nc1ccc(Cl)nc1)OCc1cccc(Oc2ccc(Cl)cc2)c1 [Compound 30] | 0.1%
35 | CC(C)C(=Nc1c(F)c(F)nc(F)c1F)OCc1cccc(Oc2ccccc2)c1 [Compound 6] | > 0.1%
36 | CC(C)C(=Nc1ccc(OCC(F)(F)F)nc1)OCc1cccc(Oc2ccc(Cl)cc2)n1 [Compound 46] | 0.017%
37 | CC(C)C(=Nc1ccc(OCC(F)(F)F)nc1)OCc1cccc(Oc2ccc(Cl)cc2)c1 [Compound 39] | 0.02%
38 | CC(C)(Cl)C(=Nc1nnc(C(F)(F)F)s1)OCc1cccc(Oc2ccccc2)c1 [Compound 9] | > 0.1%
39 | CC(C)C(=Nc1cncc(C(F)(F)F)c1)OCc1cccc(Oc2ccccc2)c1 [Compound 33] | 0.075%
40 | CC(C)C(=Nc1ccc(C(F)(F)F)cn1)OCc1cccc(Oc2ccccc2)c1 [Compound 4] | > 0.1%

Each compound was assayed on Aphis fabae (assay: Black bean aphid spray test on nasturtium plants, mortality after 48 hours). Conditions: mixed ages, percent of test compound in sprayed solution.
Assay type: in vivo, Black Bean Aphid Aphis fabae (Scop.)
Description: as §1
Black Bean Aphid Aphis fabae (Scop.)
Nasturtium plants (Tropaeolum sp.) approximately 5 cm tall, were transplanted into sandy loam soil in small cups and infested with 25-50 black bean aphids of mixed ages. Twenty-four hours later they were sprayed to the point of runoff with 50--50 acetone-water solutions of the test compound. Treated plants were held in the greenhouse and mortality was recorded after 48 hours. Test concentrations ranged from 0.05% downward. The LC-50 value is expressed below in Table II under the heading "BA" in terms of percent of the test compound in the sprayed solution.

Row | Structure (SMILES) | LC50 BA
41 | C=C(C)C(=Nc1ccc(Cl)nc1)OCc1cccc(Oc2ccccc2)c1 [Compound 47] | 0.05%
42 | CC(C)C(=Nc1ccc(OCC(F)(F)F)nc1)OCc1ccc(F)c(Oc2ccccc2)c1 [Compound 42] | 0.0004%
43 | CC(C)C(=Nc1ccc(OCC(F)(F)F)nc1)OCc1ccc(F)c(Oc2ccc(Cl)cc2)c1 [Compound 44] | 0.0003%
44 | CC(C)C(=Nc1ccc(Cl)nc1)OCc1cccc(Oc2ccc(Cl)cc2)c1 [Compound 30] | > 0.05%
45 | CC(C)C(=Nc1c(F)c(F)nc(F)c1F)OCc1cccc(Oc2ccccc2)c1 [Compound 6] | > 0.05%
46 | CC(C)C(=Nc1ccc(OCC(F)(F)F)nc1)OCc1cccc(Oc2ccc(Cl)cc2)n1 [Compound 46] | 0.0003%
47 | CC(C)C(=Nc1ccc(OCC(F)(F)F)nc1)OCc1cccc(Oc2ccc(Cl)cc2)c1 [Compound 39] | 0.001%
48 | CC(C)(Cl)C(=Nc1nnc(C(F)(F)F)s1)OCc1cccc(Oc2ccccc2)c1 [Compound 9] | > 0.05%
49 | CC(C)C(=Nc1cncc(C(F)(F)F)c1)OCc1cccc(Oc2ccccc2)c1 [Compound 33] | > 0.05%
50 | CC(C)C(=Nc1ccc(C(F)(F)F)cn1)OCc1cccc(Oc2ccccc2)c1 [Compound 4] | 0.05%

Each compound was assayed on Diabrotica undecimpunctata undecimpunctata (assay: Western spotted cucumber beetle larvae soil test). Conditions: Diabrotica eggs/larvae; ppm of the test compound in the soil.
Assay type: in vivo
Description: as §1
Western Spotted Cucumber Beetle Larvae Diabrotica undecimpunctata undecimpunctata (Mannherheim)
Ten grams of moist potting soil was placed in a plastic cup. The test compound was dissolved in acetone. A 0.05 ml aliquot of the test sample, diluted to the desired concentration, was added to the soil. The cup was capped and the soil was mixed on a vortex mixer for approximately 15 seconds. An indentation was made on the surface of the soil and approximately 50 Diabrotica eggs were added. The eggs were covered with soil and maintained at room temperature (approximately 70° F. or 21° C.). Four days later a section of Romaine lettuce (Latuca sativa) leaf was placed in the treated cups. One week later the cups were examined for live larvae. Test concentrations ranged from 25 ppm downward. The LC-50 value is expressed below in Table II under the heading "Diabrotica" in terms of ppm of the test compound in the soil.

Row | Structure (SMILES) | LC50 Diabrotica
51 | C=C(C)C(=Nc1ccc(Cl)nc1)OCc1cccc(Oc2ccccc2)c1 [Compound 47] | > 25 ppm
52 | CC(C)C(=Nc1ccc(OCC(F)(F)F)nc1)OCc1ccc(F)c(Oc2ccccc2)c1 [Compound 42] | > 25 ppm
53 | CC(C)C(=Nc1ccc(OCC(F)(F)F)nc1)OCc1ccc(F)c(Oc2ccc(Cl)cc2)c1 [Compound 44] | > 25 ppm
54 | CC(C)C(=Nc1ccc(Cl)nc1)OCc1cccc(Oc2ccc(Cl)cc2)c1 [Compound 30] | > 25 ppm
55 | CC(C)C(=Nc1c(F)c(F)nc(F)c1F)OCc1cccc(Oc2ccccc2)c1 [Compound 6] | > 25 ppm
56 | CC(C)C(=Nc1ccc(OCC(F)(F)F)nc1)OCc1cccc(Oc2ccc(Cl)cc2)n1 [Compound 46] | > 25 ppm
57 | CC(C)C(=Nc1ccc(OCC(F)(F)F)nc1)OCc1cccc(Oc2ccc(Cl)cc2)c1 [Compound 39] | > 25 ppm
58 | CC(C)(Cl)C(=Nc1nnc(C(F)(F)F)s1)OCc1cccc(Oc2ccccc2)c1 [Compound 9] | > 25 ppm
59 | CC(C)C(=Nc1cncc(C(F)(F)F)c1)OCc1cccc(Oc2ccccc2)c1 [Compound 33] | > 25 ppm
60 | CC(C)C(=Nc1ccc(C(F)(F)F)cn1)OCc1cccc(Oc2ccccc2)c1 [Compound 4] | > 25 ppm

The compounds below were run on Musca domestica (assay: Housefly contact test, mortality after 48 hours). Conditions: μg of the test compound per 25 female flies.
Assay type: in vivo, Housefly Musca domestica
Description: as §1
The test compound was diluted in acetone and aliquots pipetted onto the bottom of aluminum dishes. To ensure even spreading of the chemical on the bottom of the dishes, 1 ml of acetone containing 0.01% peanut oil was also added to each dish. After all solvents had evaporated, the dishes were placed in circular cardboard cages containing 25 female houseflies, 1-2 days old. The cages were covered on the bottom with cellophane and on the top with tulle netting, and each contained a sugar-water saturated cotton plug for maintenance of the flies. Mortality was recorded after 48 hours. Test levels ranged from 100 μg/25 female houseflies downward. The LC-50 value is expressed below in Table II under the heading "HF", in terms of μg of the test compound per 25 female flies.

Row | Structure (SMILES) | LC50 HF
61 | C=C(C)C(=Nc1ccc(Cl)nc1)OCc1cccc(Oc2ccccc2)c1 [Compound 47] | < 100 µg
62 | CC(C)C(=Nc1ccc(OCC(F)(F)F)nc1)OCc1ccc(F)c(Oc2ccccc2)c1 [Compound 42] | < 100 µg
63 | CC(C)C(=Nc1ccc(OCC(F)(F)F)nc1)OCc1ccc(F)c(Oc2ccc(Cl)cc2)c1 [Compound 44] | > 100 µg
64 | CC(C)C(=Nc1ccc(Cl)nc1)OCc1cccc(Oc2ccc(Cl)cc2)c1 [Compound 30] | 15 µg
65 | CC(C)C(=Nc1c(F)c(F)nc(F)c1F)OCc1cccc(Oc2ccccc2)c1 [Compound 6] | > 100 µg
66 | CC(C)C(=Nc1ccc(OCC(F)(F)F)nc1)OCc1cccc(Oc2ccc(Cl)cc2)n1 [Compound 46] | < 100 µg
67 | CC(C)C(=Nc1ccc(OCC(F)(F)F)nc1)OCc1cccc(Oc2ccc(Cl)cc2)c1 [Compound 39] | > 100 µg
68 | CC(C)(Cl)C(=Nc1nnc(C(F)(F)F)s1)OCc1cccc(Oc2ccccc2)c1 [Compound 9] | > 100 µg
69 | CC(C)C(=Nc1cncc(C(F)(F)F)c1)OCc1cccc(Oc2ccccc2)c1 [Compound 33] | 5 µg
70 | CC(C)C(=Nc1ccc(C(F)(F)F)cn1)OCc1cccc(Oc2ccccc2)c1 [Compound 4] | 42 µg
